Data set [1] deals with CYP2C9 (Homo sapiens, UniProt P11712). Briefly: in vitro.
Data set [2] deals with Liver microsome. Briefly: Metabolic activation in human liver microsomes assessed as [3H]GSH adduct formation rate measured per mg of protein at 100 uM by [3H]GSH trapping assay.
The target in data set [3] is T1, CYP2B6 (Homo sapiens, UniProt P20813).
T1 sequence (P20813 whole entry): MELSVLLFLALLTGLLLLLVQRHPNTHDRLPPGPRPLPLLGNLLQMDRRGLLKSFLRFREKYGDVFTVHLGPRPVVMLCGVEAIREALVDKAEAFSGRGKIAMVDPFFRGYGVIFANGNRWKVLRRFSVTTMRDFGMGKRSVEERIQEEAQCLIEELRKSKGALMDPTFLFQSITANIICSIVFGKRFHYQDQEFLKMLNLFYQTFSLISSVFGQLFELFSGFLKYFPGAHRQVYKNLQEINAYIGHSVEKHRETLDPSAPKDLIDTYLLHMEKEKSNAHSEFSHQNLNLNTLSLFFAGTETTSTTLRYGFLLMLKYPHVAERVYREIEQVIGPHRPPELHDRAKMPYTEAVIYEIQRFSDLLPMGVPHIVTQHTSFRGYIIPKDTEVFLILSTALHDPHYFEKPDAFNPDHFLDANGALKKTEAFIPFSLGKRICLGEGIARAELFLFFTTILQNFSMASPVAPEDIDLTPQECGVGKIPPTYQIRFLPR
Briefly: in vitro.

Data set [4] addresses CYP2C19 (Homo sapiens, UniProt P33261). Briefly: in vitro.
Data set [5] concerns the target T2, CYP1A2 (Homo sapiens, UniProt P05177).
T2 sequence (P05177 whole entry): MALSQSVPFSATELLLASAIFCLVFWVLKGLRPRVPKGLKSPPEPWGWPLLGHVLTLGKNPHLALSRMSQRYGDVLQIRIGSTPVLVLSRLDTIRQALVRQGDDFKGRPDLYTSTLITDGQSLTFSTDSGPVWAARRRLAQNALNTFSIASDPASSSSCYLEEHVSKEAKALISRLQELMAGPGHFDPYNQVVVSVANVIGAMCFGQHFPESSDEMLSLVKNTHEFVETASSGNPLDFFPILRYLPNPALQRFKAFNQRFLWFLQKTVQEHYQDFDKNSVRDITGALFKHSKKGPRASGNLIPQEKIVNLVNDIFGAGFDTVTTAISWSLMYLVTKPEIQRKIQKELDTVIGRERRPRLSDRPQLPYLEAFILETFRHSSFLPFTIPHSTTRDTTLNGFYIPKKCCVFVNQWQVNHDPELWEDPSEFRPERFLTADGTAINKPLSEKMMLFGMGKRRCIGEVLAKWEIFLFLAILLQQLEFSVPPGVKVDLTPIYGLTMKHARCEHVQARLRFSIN
Briefly: in vitro.

Data set [6] deals with CYP2D6 (Homo sapiens, UniProt P10635). Briefly: in vitro.
CYP2D6, sequence (P10635 whole entry): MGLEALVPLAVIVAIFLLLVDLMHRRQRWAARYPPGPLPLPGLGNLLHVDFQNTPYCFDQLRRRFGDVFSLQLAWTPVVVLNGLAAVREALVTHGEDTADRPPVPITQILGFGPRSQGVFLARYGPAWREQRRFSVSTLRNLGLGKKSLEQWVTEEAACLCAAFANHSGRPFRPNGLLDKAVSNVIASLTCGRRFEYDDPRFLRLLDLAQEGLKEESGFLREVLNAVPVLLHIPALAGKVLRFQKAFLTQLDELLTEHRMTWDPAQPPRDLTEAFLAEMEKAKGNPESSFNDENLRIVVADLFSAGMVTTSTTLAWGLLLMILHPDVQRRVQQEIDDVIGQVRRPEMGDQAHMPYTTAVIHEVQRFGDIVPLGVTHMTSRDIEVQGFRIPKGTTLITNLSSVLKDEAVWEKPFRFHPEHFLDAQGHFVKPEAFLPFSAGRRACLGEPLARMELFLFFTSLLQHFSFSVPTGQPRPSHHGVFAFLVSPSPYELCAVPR
Data set [7] addresses T3, CYP2C8 (Homo sapiens, UniProt P10632).
T3 sequence (P10632 whole entry): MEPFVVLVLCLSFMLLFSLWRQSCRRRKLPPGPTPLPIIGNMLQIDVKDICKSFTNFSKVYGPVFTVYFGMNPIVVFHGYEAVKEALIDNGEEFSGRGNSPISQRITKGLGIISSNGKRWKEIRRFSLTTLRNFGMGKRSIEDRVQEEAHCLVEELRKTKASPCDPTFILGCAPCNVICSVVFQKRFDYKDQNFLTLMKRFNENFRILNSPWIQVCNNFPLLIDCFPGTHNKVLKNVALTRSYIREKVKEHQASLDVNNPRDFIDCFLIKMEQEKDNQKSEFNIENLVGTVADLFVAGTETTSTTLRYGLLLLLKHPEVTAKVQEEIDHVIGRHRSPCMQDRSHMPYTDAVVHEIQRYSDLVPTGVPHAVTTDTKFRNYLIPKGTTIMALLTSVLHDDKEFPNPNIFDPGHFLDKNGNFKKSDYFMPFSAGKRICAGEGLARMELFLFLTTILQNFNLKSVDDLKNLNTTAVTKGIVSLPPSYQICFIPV
Briefly: in vitro.

For data set [8], the system named is Liver microsome. Briefly: Covalent binding in human liver microsomes measured per mg of protein using radiolabelled compound at 10 uM after 1 hr incubation by liquid scintillation counting.
For data set [9], the target named is CYP3A4 (Homo sapiens, UniProt P08684). Briefly: in vitro.
CYP3A4, sequence (P08684 whole entry): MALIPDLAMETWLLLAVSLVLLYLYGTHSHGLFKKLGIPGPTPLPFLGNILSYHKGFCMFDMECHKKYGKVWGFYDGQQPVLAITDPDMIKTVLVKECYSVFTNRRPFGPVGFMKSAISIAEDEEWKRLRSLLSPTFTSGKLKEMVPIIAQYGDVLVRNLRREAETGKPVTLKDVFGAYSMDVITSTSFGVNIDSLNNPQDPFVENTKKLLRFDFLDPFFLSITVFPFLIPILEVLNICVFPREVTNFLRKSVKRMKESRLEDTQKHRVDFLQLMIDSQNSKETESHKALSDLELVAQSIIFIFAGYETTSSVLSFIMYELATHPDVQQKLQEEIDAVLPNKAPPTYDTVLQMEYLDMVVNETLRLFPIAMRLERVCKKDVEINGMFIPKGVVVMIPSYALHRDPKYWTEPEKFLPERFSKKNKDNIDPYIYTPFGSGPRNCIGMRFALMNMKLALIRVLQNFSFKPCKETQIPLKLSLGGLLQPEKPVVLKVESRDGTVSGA
Data set [10] can be described thus: Intrinsic clearance for reactive metabolites formation assessed as summation of [3H]GSH adduct formation rate-based reactive metabolites formation and cytochrome P450 (unknown origin) inactivation rate-based reactive metabolites formation. The following applies: human.
A short description of data set [11]: Intrinsic clearance for reactive metabolites formation per mg of protein based on cytochrome P450 (unknown origin) inactivation rate by TDI assay. Particulars: human.

From ChEMBL document CHEMBL3526118, “Combination of GSH trapping and time-dependent inhibition assays as a predictive method of drugs generating highly reactive metabolites” (Drug Metab Dispos, 2011) come the findings set out here.

CYP2C9, sequence (P11712 whole entry): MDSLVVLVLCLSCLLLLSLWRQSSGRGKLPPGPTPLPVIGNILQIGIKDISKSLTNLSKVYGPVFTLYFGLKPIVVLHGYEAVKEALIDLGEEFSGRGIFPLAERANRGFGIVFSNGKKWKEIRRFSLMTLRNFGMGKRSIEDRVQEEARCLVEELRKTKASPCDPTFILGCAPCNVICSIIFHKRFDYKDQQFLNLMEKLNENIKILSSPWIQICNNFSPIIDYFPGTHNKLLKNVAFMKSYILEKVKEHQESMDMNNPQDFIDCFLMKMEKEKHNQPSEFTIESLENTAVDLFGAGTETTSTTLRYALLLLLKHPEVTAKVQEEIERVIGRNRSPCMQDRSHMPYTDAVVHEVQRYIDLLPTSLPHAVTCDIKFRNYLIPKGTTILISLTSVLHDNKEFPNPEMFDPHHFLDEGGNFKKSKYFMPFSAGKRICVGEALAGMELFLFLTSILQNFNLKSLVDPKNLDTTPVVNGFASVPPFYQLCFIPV
CYP2C19, sequence (P33261 whole entry): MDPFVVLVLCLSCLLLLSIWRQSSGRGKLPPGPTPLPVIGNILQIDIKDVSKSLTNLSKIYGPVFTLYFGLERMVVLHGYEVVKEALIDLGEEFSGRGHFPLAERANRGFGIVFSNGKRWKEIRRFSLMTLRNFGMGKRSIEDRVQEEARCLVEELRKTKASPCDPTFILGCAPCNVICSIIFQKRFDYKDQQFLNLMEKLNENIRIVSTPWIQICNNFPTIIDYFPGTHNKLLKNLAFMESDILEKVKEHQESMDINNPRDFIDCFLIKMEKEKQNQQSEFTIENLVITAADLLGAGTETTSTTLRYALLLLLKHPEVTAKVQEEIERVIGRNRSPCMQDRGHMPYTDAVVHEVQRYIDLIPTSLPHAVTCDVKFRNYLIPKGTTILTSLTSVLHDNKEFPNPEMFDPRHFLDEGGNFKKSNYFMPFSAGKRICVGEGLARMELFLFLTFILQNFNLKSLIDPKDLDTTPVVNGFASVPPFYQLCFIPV

Turning to `CCCCC(=O)N(Cc1ccc(-c2ccccc2-c2nnn[nH]2)cc1)[C@H](C(=O)O)C(C)C`, the inhibition at 100 µM in [1], in [3], in data set [4] (human liver microsomes), in [5], in data set [6] and in data set [7] was less than 10% throughout. Besides, the inhibition at 100 µM in [9] is less than 10%. Besides, in data set [2], the Drug metabolism entry was “metabolite_not_detected”. Also, the PB in [8] is listed as 1.4 pmol.

Regarding `COc1ccc(CCN(C)CCCC(C#N)(c2ccc(OC)c(OC)c2)C(C)C)cc1OC` (stereo unspecified), the inhibition at 100 µM in data set [1] was less than 10%; in data set [3], 10%; in data set [4] (microsomes) it was less than 10%; in [5] it was less than 10%; in data set [6], less than 10%; in data set [7], less than 10%. In addition, 100 µM produced 51% inhibition in data set [9].

On to `Cc1c(N(C)C)c(=O)n(-c2ccccc2)n1C` [AMINOPYRINE], for which the inhibition at 100 µM in data set [1], in data set [3], in [4] (microsomes), in data set [5], in [6] and in data set [7] was less than 10% throughout. This molecule gave an inhibition at 100 µM in data set [9] of less than 10%. The Drug metabolism entry in data set [2] is on record as “metabolite_not_detected”. In addition, the PB in data set [8] was 30.9 pmol.

As to `CC(C)c1c(C(=O)Nc2ccccc2)c(-c2ccccc2)c(-c2ccc(F)cc2)n1CC[C@@H](O)C[C@@H](O)CC(=O)O` [ATORVASTATIN], the Drug metabolism in [2] was 12.7 pmol/min. Moreover, the inhibition at 100 µM in data set [3] and in data set [7] was less than 10% throughout. This molecule showed a PB in [8] of 352.3 pmol.

For `Cn1c(=O)c2c(ncn2C)n(C)c1=O` [CAFFEINE], the inhibition at 100 µM in data set [1], in data set [3], in data set [4] (human liver microsomes), in data set [5], in [6] and in data set [7] was less than 10% in each case. In [9], this molecule showed an inhibition at 100 µM of less than 10%. Further, in data set [2], the Drug metabolism entry was “metabolite_not_detected”. This molecule registered a PB in [8] of 9.9 pmol.

Take `CN1CCN(C2=Nc3cc(Cl)ccc3Nc3ccccc32)CC1` [CLOZAPINE]: the inhibition at 100 µM in data set [1] was less than 10%; in data set [3], less than 10%; in [5], 12%; in data set [6] it was less than 10%; in [7], less than 10%.

Consider `COc1cc2c(cc1OC)C(=O)C(CC1CCN(Cc3ccccc3)CC1)C2` (stereo unspecified) [DONEPEZIL], for which the Drug metabolism entry in data set [2] is “metabolite_not_detected”. In [8], this molecule had a PB of 29.7 pmol.

`NS(=O)(=O)c1cc(C(=O)O)c(NCc2ccco2)cc1Cl` [FUROSEMIDE]: the inhibition at 100 µM in data set [3] and in [7] was less than 10% throughout.

Regarding `CN(C)CCCN1c2ccccc2CCc2ccccc21` [IMIPRAMINE], the inhibition at 100 µM in data set [1], in [3], in data set [5], in data set [6], in data set [7] and in data set [9] was less than 10% in each case.

For `C[C@H]1COc2c(N3CCN(C)CC3)c(F)cc3c(=O)c(C(=O)O)cn1c23.C[C@H]1COc2c(N3CCN(C)CC3)c(F)cc3c(=O)c(C(=O)O)cn1c23.O` [LEVOFLOXACIN], the inhibition at 100 µM in data set [1], in data set [3], in data set [4] (human liver microsomes), in data set [5], in [6] and in data set [7] was less than 10% throughout. The Drug metabolism result in data set [2] is reported as “metabolite_not_detected”.

`CCCc1nc(C(C)(C)O)c(C(=O)O)n1Cc1ccc(-c2ccccc2-c2nnn[nH]2)cc1` [OLMESARTAN]: the inhibition at 100 µM in [1], in data set [3], in data set [4] (human liver microsomes), in data set [5], in data set [6] and in [7] was less than 10% each time. The molecule further displayed an inhibition at 100 µM in data set [9] of less than 10%. Besides, in data set [2], the Drug metabolism result is “metabolite_not_detected”. The PB in data set [8] stood at 3.4 pmol.

Turning to `CC[C@H](C)C(=O)O[C@H]1C[C@H](O)C=C2C=C[C@H](C)[C@H](CC[C@@H](O)C[C@@H](O)CC(=O)O)[C@H]21` [PRAVASTATIN], the inhibition at 100 µM in [1], in [3], in [4] (microsomes), in [5], in [6] and in [7] was less than 10% in each case. The molecule further yielded an inhibition at 100 µM in data set [9] of less than 10%. Besides, the Drug metabolism result in [2] is reported as “metabolite_not_detected”. The molecule also yielded a PB in data set [8] of 3.7 pmol.

In the case of `CCN(CC)CCNC(=O)c1ccc(N)cc1` [PROCAINAMIDE], the inhibition at 100 µM in [1], in data set [3], in data set [5], in data set [6], in data set [7] and in data set [9] was less than 10% throughout. Besides, in data set [2], the Drug metabolism was found to be 41.3 pmol/min. This molecule also showed a PB in [8] of 5.1 pmol.

Consider `CC(C)NCC(O)COc1cccc2ccccc12` (stereo unspecified) [PROPRANOLOL], for which the inhibition at 100 µM in [1] was less than 10%; in data set [3] it was less than 10%; in data set [4] (microsomes), less than 10%; in data set [5] it was 25%; in data set [6], less than 10%; in data set [7] it was less than 10%. Further, in [9], the inhibition at 100 µM is less than 10%. The clearance was 0.031 µL/min/mg in data set [10] and 0.004 µL/min/mg in data set [11].

On to `CC(C)c1nc(CN(C)C(=O)N[C@H](C(=O)N[C@@H](Cc2ccccc2)C[C@H](O)[C@H](Cc2ccccc2)NC(=O)OCc2cncs2)C(C)C)cs1` [RITONAVIR], for which, in [2], the Drug metabolism result was “metabolite_not_detected”. Moreover, the clearance in data set [10] and in [11] was 3.55 µL/min/mg throughout. Besides, the PB in data set [8] was determined as 253.3 pmol.

Consider `Cc1cc(NS(=O)(=O)c2ccc(N)cc2)no1` [SULFAMETHOXAZOLE], for which the inhibition at 100 µM in [3] and in data set [7] was less than 10% throughout.

Take `CCCC(CCC)C(=O)O` [VALPROIC ACID]: the inhibition at 100 µM in data set [1], in data set [3], in data set [5], in data set [6], in [7] and in data set [9] was less than 10% throughout.

For `Cc1cc(CC(=O)O)n(C)c1C(=O)c1ccc(Cl)cc1` [ZOMEPIRAC], the inhibition at 100 µM in [1], in data set [3], in data set [4] (microsomes), in data set [5], in [6] and in data set [7] was less than 10% throughout. Also, in data set [9], the inhibition at 100 µM was less than 10%. Further, the Drug metabolism result in [2] is on record as “metabolite_not_detected”. The same molecule showed a PB in [8] of 6.4 pmol.
